Data taken from patent publication US11136315B2, “CXCR2 antagonist” (MEDSHINE DISCOVERY INC., priority 2018, dated 2021).

Columns and labels:
[1] = biological target: CXCR2 (Homo sapiens (Human), UniProt P25025); test: PathHunter CXCR2 β-arrestin cell assay, antagonism of CXCL8 (EC80); assay type: cell-based; settings: PathHunter CXCR2 β-arrestin cells, CXCL8 agonist at EC80
Method: The IC50 values were determined to evaluate the antagonistic activity of the test compounds against CXCR2.
PathHunter® CXCR2 β-arrestin cells (DiscoverX) were grown under normal conditions and seeded on a white-walled 384-microwell plate at 20 μL/well. Before testing, the cells were incubated at 37° C. for an appropriate time. The test compounds were serially diluted in DMSO at a three-fold dilution factor to obtain 8 serially diluted test compounds. Shortly before the test, the above serially diluted test compounds were further diluted with test buffer to 5 times the test concentration. 5 μL of the further diluted test compounds was added to the cells and then the cells were incubated at 37° C. for 30 minutes. The vehicle concentration was 1%. 5 μL of 6×EC80 agonist (CXCL8) buffer was added to the cells and then the cells were incubated at 37° C. for 90 minutes. 15 μL (50% v/v) of PathHunter detection reagent mixture was added in one portion, followed by one-hour incubation to generate the test signal. The microplates were read on a PerkinElmer Envision™ instrument for chemiluminescence signal. The biological activity of the test compounds was analyzed by CBIS data analysis suite (ChemInnovation, CA) and shown as IC50 values.

[2] = Pharmacokinetic evaluation in C57BL/6 mice; assay type: in vivo; settings: male, mouse, plasma; for clearance / half-life / AUC: intravenous 1 mpk / gavage 5 mpk study; for half-life: read-out: Half-life T1/2 (converted); for AUC: route not stated, unit printed shifted under first column, read-out: Area under the drug concentration time curve (AUC); for bioavailability: po, 5 mg/kg, gavage 5 mpk vs intravenous 1 mpk, read-out: Bioavailability (F)
Method: The pharmacokinetic parameters of the compounds in C57BL/6 mice were investigated.
C57BL/6 mice (male, 18-30 g, 7-9 weeks old, Shanghai Lingchang Biotechnology Co., Ltd.)
Formulations containing an aqueous solution of 1% DMSO/10% hydroxypropyl-β-cyclodextrin as the vehicle were administered by intravenous injection (1 mpk), formulations containing an aqueous solution of 1% DMSO/1% hydroxypropyl methylcellulose/0.2% Tween 80 as the vehicle were administered by gavage (5 mpk). Before the animal experiment, all animals were fasted, and fed 4 hours after administration; all animals were free to drink water. The time points of blood collection: intravenous injection administration group: 0.083, 0.25, 0.5, 1, 2, 4, 6, 8 and 24 hours; gavage administration group: 0.25, 0.5, 1, 2, 4, 6, 8 and 24 hours.
(§1) Whole blood samples (0.03 mL) were collected through the saphenous vein (or other suitable blood collection sites) at the prescribed time points, and all blood samples were added to labeled plastic centrifuge tubes containing K2-EDTA anticoagulant. After the blood samples were collected, the plasma was isolated by centrifugation, immediately placed in dry ice and stored at low temperature. All samples were analyzed by LC-MS/MS with a minimum detection limit of 2 nM. The non-compartmental model of WinNonlin™ Version 6.3 (Pharsight, Mountain View, Calif.) pharmacokinetic software was used to process the mean plasma concentration, and the linear-log trapezoid method was used to calculate the pharmacokinetic parameters.

[3] = Pharmacokinetic and tissue distribution in Lewis rats; assay type: in vivo; settings: male, rat, lung / plasma, oral, 5 mg/kg, gavage 5 mpk, read-out: Ratio in lung blood
Method: The pharmacokinetic and tissue distribution of the compounds in Lewis rats was tested.
Lewis rats (male, 202-239 g, 7-9 weeks old, Beijing Viton Lihua)
Formulations containing an aqueous solution of 1% hydroxypropyl methylcellulose/0.2% Tween 80 as the vehicle were administered by gavage (5 mpk). Before the animal experiment, all animals were fasted overnight, and fed 4 hours after administration; all animals were free to drink water. The time points of blood collection: danirixin administration group: 0.25, 1, 8 hours; gavage administration group: 0.5, 1, 4 hours.
as §1, with “(0.2” for “(0.03”, “separated” for “isolated”, “log-linear” for “linear-log”

CXCR2, sequence (P25025 whole entry): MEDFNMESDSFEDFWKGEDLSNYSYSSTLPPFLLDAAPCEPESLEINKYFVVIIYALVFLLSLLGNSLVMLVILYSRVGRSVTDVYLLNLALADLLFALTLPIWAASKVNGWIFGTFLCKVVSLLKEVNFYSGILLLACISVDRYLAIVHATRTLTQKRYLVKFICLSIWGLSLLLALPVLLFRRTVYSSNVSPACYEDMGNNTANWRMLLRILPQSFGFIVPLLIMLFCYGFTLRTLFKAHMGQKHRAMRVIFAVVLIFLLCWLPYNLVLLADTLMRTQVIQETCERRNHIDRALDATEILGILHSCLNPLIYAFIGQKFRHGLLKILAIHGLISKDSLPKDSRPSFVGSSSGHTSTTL

Row | SMILES | IC50 [1] | further results
1 | O=C(Nc1ccc(Cl)c(S(=O)(=O)[C@H]2CCCNC2)c1O)NC1CCCc2occc21 (single isomer, unassigned) [WX001A] | 152 nM | 
2 | CC(C)S(=O)(=O)c1c(Cl)ccc(NC(=O)NC2CCCc3occc32)c1O (single isomer, unassigned) [WX002A] | 45 nM | 
3 | CC(C)(C)OC(=O)N1CCC[C@H](S(=O)(=O)c2c(Cl)ccc(NC(=O)NC3CCCc4ccoc43)c2O)C1 (single isomer, unassigned) [WX004A] | 43 nM | 
4 | CC(C)(C)S(=O)(=O)c1c(Cl)ccc(NC(=O)NC2CCCc3ccoc32)c1O (single isomer, unassigned) [WX005A] | 14 nM | 
5 | O=C(Nc1ccc(Cl)c(S(=O)(=O)C2CC2)c1O)NC1CCCc2ccoc21 (single isomer, unassigned) [WX006A] | 22 nM | clearance [2]: 8.3 mL/min/kg; half-life [2]: 3.09 h; AUC [2]: 20.1 µM·h; bioavailability [2]: 83.8%
6 | CCS(=O)(=O)c1c(Cl)ccc(NC(=O)NC2CCCc3ccoc32)c1O (single isomer, unassigned) [WX007A] | 42 nM | 
7 | O=C(Nc1ccc(Cl)c(S(=O)(=O)[C@H]2CCCNC2)c1O)NC1CCCc2ccoc21 (single isomer, unassigned) [WX013A] | 14 nM | clearance [2]: 30.8 mL/min/kg; half-life [2]: 2.21 h; AUC [2]: 4.44 µM·h; bioavailability [2]: 75.5%
8 | O=C(Nc1ccc(Cl)c(S(=O)(=O)CCNC(=O)C2CC2)c1O)NC1CCCc2ccoc21 (single isomer, unassigned) [WX016A] | 134 nM | 
9 | COC(=O)NCCS(=O)(=O)c1c(Cl)ccc(NC(=O)NC2CCCc3ccoc32)c1O (single isomer, unassigned) [WX017A] | 72 nM | 
10 | O=C(CS(=O)(=O)c1c(Cl)ccc(NC(=O)NC2CCCc3ccoc32)c1O)NCC(F)(F)F (single isomer, unassigned) [WX018A] | 133 nM | 
11 | CC(C)(Cc1ccccc1)S(=O)(=O)c1c(Cl)ccc(NC(=O)N[C@H]2CCCc3ccoc32)c1O (single isomer, unassigned) [WX020A] | 177 nM | 
12 | O=C(Nc1ccc(Cl)c(S(=O)(=O)C2CC3(CNC3)C2)c1O)NC1CCCc2ccoc21 (single isomer, unassigned) [WX021A] | 720 nM | 
13 | O=C(Nc1ccc(Cl)c(S(=O)(=O)C2CC3(CCNCC3)C2)c1O)N[C@H]1CCCc2ccoc21 (single isomer, unassigned) [WX022A] | 366 nM | 
14 | O=C(Nc1ccc(Cl)c(S(=O)(=O)C2CCNCC2)c1O)N[C@H]1CCCc2ccoc21 (single isomer, unassigned) [WX023A] | 36 nM | 
15 | O=C(Nc1ccc(Cl)c(S(=O)(=O)C2CCCNC2)c1O)NC1CCCc2sccc21 (single isomer, unassigned) [WX024A] | 525 nM | 
16 | O=C(Nc1ccc(Cl)c(S(=O)(=O)C2CCCNC2)c1O)NC1CCCc2sccc21 (single isomer, unassigned) [WX024B] | 667 nM | 
17 | O=C(Nc1ccc(Cl)c(S(=O)(=O)C2CC2)c1O)N[C@@H]1CCCc2sccc21 (single isomer, unassigned) [WX025B] | 139 nM | 
18 | O=C(Nc1ccc(Cl)c(S(=O)(=O)C2CC2)c1O)N[C@H]1CCCc2ccsc21 (single isomer, unassigned) [WX027A] | 269 nM | 

Row | SMILES | IC50 [1] | further results
19 | Cc1cc2c(o1)C(NC(=O)Nc1ccc(Cl)c(S(=O)(=O)[C@H]3CCCNC3)c1O)CCC2 (single isomer, unassigned) [WX029A] | 2 nM | 
20 | Cc1cc2c(o1)C(NC(=O)Nc1ccc(Cl)c(S(=O)(=O)[C@H]3CCCNC3)c1O)CCC2 (single isomer, unassigned) [WX029B] | 245 nM | 
21 | O=C(Nc1ccc(Cl)c(S(=O)(=O)[C@H]2CCCNC2)c1O)NC1CCCc2cc(C(F)(F)F)oc21 (single isomer, unassigned) [WX030B] | 22 nM | Kp [3]: 2.17
22 | CC(C)S(=O)(=O)c1c(Cl)ccc(NC(=O)N[C@H]2CCCc3ccoc32)c1O [WX003A] | 17 nM | clearance [2]: 11.2 mL/min/kg; half-life [2]: 2.22 h; AUC [2]: 12.7 µM·h; bioavailability [2]: 70.3%
23 | CS(=O)(=O)c1c(Cl)ccc(NC(=O)N[C@H]2CCCc3ccoc32)c1O [WX008A] | 122 nM | 
24 | O=C(Nc1ccc(Cl)c(S(=O)(=O)C2CCC2)c1O)NC1CCCc2ccoc21 (stereo not shown) [WX009] | 177 nM | 
25 | O=C(Nc1ccc(Cl)c(S(=O)(=O)C2CCCC2)c1O)N[C@H]1CCCc2ccoc21 [WX010A] | 61 nM | 
26 | O=C(Nc1ccc(Cl)c(S(=O)(=O)C2CCCCC2)c1O)N[C@H]1CCCc2ccoc21 [WX011A] | 70 nM | 
27 | O=C(Nc1ccc(Cl)c(S(=O)(=O)CC(F)(F)F)c1O)N[C@H]1CCCc2ccoc21 [WX012A] | 17 nM | clearance [2]: 15.8 mL/min/kg; half-life [2]: 0.94 h; AUC [2]: 9.39 µM·h; bioavailability [2]: 82.5%
28 | O=C(Nc1ccc(Cl)c(S(=O)(=O)CCN2C(=O)c3ccccc3C2=O)c1O)NC1CCCc2ccoc21 (stereo not shown) [WX014] | 232 nM | 
29 | NCCS(=O)(=O)c1c(Cl)ccc(NC(=O)NC2CCCc3ccoc32)c1O (stereo not shown) [WX015] | 186 nM | 
30 | O=C(Nc1ccc(Cl)c(S(=O)(=O)C2CC2)c1O)NC1CCCc2ncsc21 (stereo not shown) [WX028] | 472 nM | 
31 | Cc1cc2c(o1)C(NC(=O)Nc1ccc(Cl)c(S(=O)(=O)[C@H]3CCCNC3)c1O)CCC2 (stereo partly shown) [WX029] | 15 nM | 
32 | O=C(Nc1ccc(Cl)c(S(=O)(=O)C2CC2)c1O)NC1CCCc2cc(C(F)(F)F)oc21 (stereo not shown) [WX032] | 144 nM | 
33 | Cc1cc2c(o1)C(NC(=O)Nc1ccc(Cl)c(S(=O)(=O)C3CC3)c1O)CCC2 (stereo not shown) [WX033] | 6 nM | 
34 | CC(C)S(=O)(=O)c1c(Cl)ccc(NC(=O)NC2CCCc3cc(C(F)(F)F)oc32)c1O (stereo not shown) [WX034] | 55 nM | 
35 | CC1(C)NCCCC1S(=O)(=O)c1c(Cl)ccc(NC(=O)NC2CCCc3ccoc32)c1O (stereo not shown) [WX036] | 23 nM | 
